Seven compounds from patent US12421210B2, “Fused bicyclic heterocycles as therapeutic agents” (NEW YORK UNIVERSITY, priority 2018, dated 2025) can be followed below.

The structures appear in SMILES notation.

For the test, the target named is human NAMPT enzyme (His-hNAMPT) (Homo sapiens (Human), UniProt P43490). Put plainly: NAMPT enzymatic inhibition assay (fluorescence, NADH product). The class given is biochemical. As to conditions: [HDB]; read-out: NAMPT IC50 (μM) [HDB].
human NAMPT enzyme (His-hNAMPT), sequence (P43490 whole entry): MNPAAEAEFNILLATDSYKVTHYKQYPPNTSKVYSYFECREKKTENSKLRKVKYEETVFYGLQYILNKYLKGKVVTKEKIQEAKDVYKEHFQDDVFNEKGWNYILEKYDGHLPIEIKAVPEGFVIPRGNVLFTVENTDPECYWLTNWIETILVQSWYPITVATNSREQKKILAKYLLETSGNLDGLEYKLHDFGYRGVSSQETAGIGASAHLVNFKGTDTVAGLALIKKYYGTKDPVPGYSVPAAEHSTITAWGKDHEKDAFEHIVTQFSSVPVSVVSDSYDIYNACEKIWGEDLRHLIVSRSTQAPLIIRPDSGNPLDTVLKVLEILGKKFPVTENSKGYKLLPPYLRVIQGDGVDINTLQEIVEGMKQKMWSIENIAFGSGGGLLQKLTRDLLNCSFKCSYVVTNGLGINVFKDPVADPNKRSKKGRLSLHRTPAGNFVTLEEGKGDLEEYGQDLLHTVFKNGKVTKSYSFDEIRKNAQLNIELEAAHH
Turning to `O=C(/C=C/c1cccnc1)NCC[C@@H]1[C@H]2CN(c3nc(-c4ncco4)ncc3F)C[C@@H]12` [Example 336, (E)-N-(2-((1R,5S,6s)-3-(5-fluoro-2-(oxazol-2-yl)pyrimidin-4-yl)-3-azabicyclo[3.1.0]hexan-6-yl)ethyl)-3-(pyridin-3-yl)acrylamide], the half-maximal inhibitory concentration (IC50) was below 0.01 µM.
Turning to `O=C(/C=C/c1cccnc1)NCC[C@@H]1[C@H]2CN(c3cccc4[nH]ncc34)C[C@@H]12` [Example 337, (E)-N-(2-((1R,5S,6s)-3-(1H-indazol-4-yl)-3-azabicyclo[3.1.0]hexan-6-yl)ethyl)-3-(pyridin-3-yl)acrylamide], the concentration for half-maximal inhibition (IC50) fell in the range of 0.01 to 0.49 µM.
As to `CCOP(=O)(OCC)c1cccc(N2C[C@@H]3[C@@H](CCNC(=O)/C=C/c4cccnc4)[C@@H]3C2)c1` [Example 338, diethyl (3-((1R,5S,6s)-6-(2-((E)-3-(pyridin-3-yl)acrylamido)ethyl)-3-azabicyclo[3.1.0]hexan-3-yl)phenyl)phosphonate], the IC50 was in the range of 0.01 to 0.49 µM.
Consider `COc1cc(N2C[C@@H]3[C@@H](CCNC(=O)/C=C/c4ccc(N)nc4)[C@@H]3C2)ccn1` [Example 339, (E)-3-(6-aminopyridin-3-yl)-N-(2-((1R,5S,6s)-3-(2-methoxypyridin-4-yl)-3-azabicyclo[3.1.0]hexan-6-yl)ethyl)acrylamide], for which the IC50 fell in the range of 0.01 to 0.49 µM.
As for `CC(c1ccc(F)cc1)N1C[C@@H]2[C@@H](CCNC(=O)/C=C/c3ccc(N)nc3)[C@@H]2C1` (stereo partly drawn) [Example 340, (E)-3-(6-aminopyridin-3-yl)-N-(2-((1R,5S,6s)-3-(1-(4-fluorophenyl)ethyl)-3-azabicyclo[3.1.0]hexan-6-yl)ethyl)acrylamide], the IC50 lay in the range of 0.01 to 0.49 µM.
For the compound `Nc1ccc(/C=C/C(=O)NCC[C@@H]2[C@H]3CN(c4ccc(F)cc4)C[C@@H]23)cn1` [Example 341, (E)-3-(6-aminopyridin-3-yl)-N-(2-((1R,5S,6s)-3-(4-fluorophenyl)-3-azabicyclo[3.1.0]hexan-6-yl)ethyl)acrylamide], the IC50 is 0.01 to 0.49 µM.
Take `Cc1nc2nccc(N3C[C@@H]4[C@@H](CCNC(=O)/C=C/c5cccnc5)[C@@H]4C3)c2o1` [Example 342, (E)-N-(2-((1R,5S,6s)-3-(2-methyloxazolo[4,5-b]pyridin-7-yl)-3-azabicyclo[3.1.0]hexan-6-yl)ethyl)-3-(pyridin-3-yl)acrylamide]: the IC50 is 0.01 to 0.49 µM.
